{"source": "patent US12465059B2", "about": "“Concentrated formic acid composition and its uses thereof” (priority 2018, dated 2025)", "origin": "cited, not measured here", "key": {"[1]": {"settings": "versus Acetic Acid, the second best strongest straight chain Organic Acid"}, "Rat": {"system": "Rat", "settings": "oral"}}, "data": [{"compound": "O=CO", "note": "[Methanoic acid]", "values": [{"measurement": "times stronger than Acetic Acid (acid strength)", "setting": "[1]", "result": 10, "unit": "times"}]}, {"compound": "[Cl-].[Na+]", "note": "[Sodium Chloride]", "values": [{"measurement": "LD 50", "setting": "Rat", "result": 3000, "unit": "mg/kg"}]}]}
